In patent publication US20070219248A1, “Salt of Oxalic Acid with -[4[2-(N-Methyl-N-(2-Pyridyl)-Amino)Ethoxy]Benzyl]Thiazolidin-2,4- Dione and a Method of its Preparation and its Use” (priority 2004, published 2007):
Entries after “also recorded” stand apart in the source; their conditions may differ. Structures can show the parent of a compound that is named as a salt.

Columns and labels:
[1] = Solubility in water and aqueous hydrochloric acid, stated only in words; format: physicochemical; settings: crystalline form
[2] = Solubility of rosiglitazone salts in 0.1 M hydrochloric acid (Example 7); format: physicochemical; settings: 1 g salt
Text: Contrary to some other salts of rosiglitazone, the above-described crystalline salt of formula III is well soluble in water and in aqueous solutions of hydrochloric acid. Especially the solubility in solutions of hydrochloric acid is very important considering the acidobasic conditions in the digestive system (especially in the stomach). It offers indication of the solubility of the substance after it is digested, which is a very important factor for evaluating pharmaceutical effectiveness of the substance. A comparison of the solubility of the salt of the compound of formula III in acidic environment with some of several other rosiglitazone salts is documented in Example 7. […] However, neither the same amount of rosiglitazone hydrochloride prepared according to WO 2000/063205 nor the same amount of pharmaceutically used rosiglitazone maleate of formula II prepared according to WO 94/05659 could be dissolved under the same conditions.
Solubility was determined for crystalline rosiglitazone oxalate of chemical formula III, which was prepared by the procedure according to Example 1. 1 g of crystalline salt of formula III was dissolved under stirring and at 25° C. in 20, 30, 35 a 40 ml of a 0.1M solution of hydrochloric acid. The mixture was stirred at 25° C. for five minutes. When using 20 and 30 ml of the solvent, there was obtained no solution.

Row | Solubility in water and in aqueous solutions of hydrochloric acid [1] | Dissolution of 1 g of salt in 20 ml of solvent ([2]; 20 ml 0.1M hydrochloric acid, 25° C., stirred five minutes) | Dissolution of 1 g of salt in 30 ml of solvent ([2]; 30 ml 0.1M hydrochloric acid, 25° C., stirred five minutes) | Dissolution of 1 g of salt in 35 ml of solvent ([2]; 35 ml 0.1M hydrochloric acid, 25° C., stirred five minutes) | Dissolution of the same amount (1 g) at the same conditions ([2]; 20 to 40 ml 0.1M hydrochloric acid, 25° C., stirred five minutes) | Dissolution after extension of the time and another dilution ([2]; extended dissolution time, further dilution with 0.1 M hydrochloric acid) | Compound | Dissolution of 1 g of salt in 40 ml of solvent ([2]; 40 ml 0.1M hydrochloric acid, 25° C., stirred five minutes)
1 | well soluble | no solution | no solution | cloudy solution |  |  | CN(CCOc1ccc(CC2SC(=O)NC2=O)cc1)c1ccccn1 (stereo not shown) [III] | completely dissolved; also recorded: no cloudy solution
2 |  |  |  |  | neither dissolving | No solutions could be obtained | CN(CCOc1ccc(CC2SC(=O)NC2=O)cc1)c1ccccn1 (stereo not shown) [rosiglitazone maleate, reference compound] | 
